Patent EP1487434B1, “BOTANICAL EXTRACT COMPOSITIONS WITH ANTI-CANCER ACTIVITY COMPRISING ISOLIQUIRITIGENIN” (The Medical Research and Education Trust, priority 2002, dated 2003)
Converted amounts (≈) assume the structure as drawn.

Assays:
Assay type in all cases: cell-based
LNCaP cells = test: Cell cycle measurement by DNA content flow cytometry, LNCaP; settings: two concentrations, 24-48 hours exposure
Experimental: (§1) The cells were washed with phosphate buffered saline (PBS) and fixed in ice-cold 70% ethanol. Aliquots of fixed cells were rehydrated in PBS and stained with 1.0 microgram/milliliter DAPI (4,6-diamidino-2-phenylindole from Eastman Kodak, Rochester, NY), and dissolved in 10 millimolar piperazine-N,N-bis-2-ethane-sulfonic acid buffer (Calbiochem, La Jolla, CA) containing 100 millimolar NaCl, 2mM MgCl2 and 0.1% Triton X-100 (Sigma) at pH 6.8 as previously described by Halicka et al. (H. D. Halicka, B. Ardelt, G. Juan, A. Mittelman, S. Chen, F. Traganos and Z. Darzynkiewicz, "Apoptosis and Cell Cycle Effects Induced by Extracts of the Chinese Herbal Preparation of PC SPES", International J. of Oncology (1997), 11: 437-448).
(§2) The cellular DNA content was measured with an ELITE ESP flow cytometer (Coulter Inc., F1.) using UV laser illumination. The multicycle program was used to deconvolute the DNA frequency histograms to estimate the frequency of cells in different phases of the cell cycle.

DU-145 = test: Cell cycle measurement by DNA content flow cytometry, DU-145; settings: protocol of Example 3
Experimental: as §1, §2
A prolongation in the G2M phase leads to the suppression of DU-145 cell proliferation.

hERα = biological target: T1, hERα (Homo sapiens, UniProt P03372); test: ERα-Luc reporter gene activation in transfected HEK 293 cells; settings: 0 to 9 µg/ml, 20 hours
T1 construct: expressed in transfected cells; host or cells: HEK 293 cells (ATCC CRL-1573)
T1 sequence (P03372 whole entry): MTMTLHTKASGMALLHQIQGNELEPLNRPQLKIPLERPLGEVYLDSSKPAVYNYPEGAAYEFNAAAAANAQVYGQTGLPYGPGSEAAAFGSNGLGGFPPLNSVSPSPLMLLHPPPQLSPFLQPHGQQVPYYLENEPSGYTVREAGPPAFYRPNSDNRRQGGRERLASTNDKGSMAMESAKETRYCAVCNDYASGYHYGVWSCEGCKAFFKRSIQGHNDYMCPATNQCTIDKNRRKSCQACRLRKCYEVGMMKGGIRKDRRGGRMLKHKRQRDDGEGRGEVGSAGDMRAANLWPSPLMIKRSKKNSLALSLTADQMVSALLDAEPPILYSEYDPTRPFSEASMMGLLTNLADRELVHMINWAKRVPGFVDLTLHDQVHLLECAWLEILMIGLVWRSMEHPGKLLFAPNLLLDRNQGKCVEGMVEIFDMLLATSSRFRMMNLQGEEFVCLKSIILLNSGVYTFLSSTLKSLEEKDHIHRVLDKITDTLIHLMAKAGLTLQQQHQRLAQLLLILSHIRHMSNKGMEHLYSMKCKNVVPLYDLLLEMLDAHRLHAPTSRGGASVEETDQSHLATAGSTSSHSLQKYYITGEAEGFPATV
Description: (§3) HEK 293 cells (ATCC CRL-1573) were transfected with an expression vector for hERα and hERβ respectively, and an ERE-LUC reporter gene (plus a TK-LUC reporter for normalization) following the protocol of Yoon et al ("Differential activation of wild-type and variant forms of estrogen receptor α by synthetic and natural estrogenic compounds using a promoter containing three estrogen-responsive elements", J. Steroid Biochem. & Molecular Biology (2000), 28: pages 25-32).

hERβ = biological target: T2, hERβ (Homo sapiens, UniProt Q92731); test: ERβ-Luc reporter gene activation in transfected HEK 293 cells; settings: for capability in activating ERβ-Luc reporter gene than the ERα-Luc reporter gene: ERβ-Luc versus ERα-Luc, 1200 min; for ERβ-Luc reporter gene activation: HEK 293 cells, 0 to 9 µg/ml, 20 hours
T2 construct: expressed in transfected cells; host or cells: HEK 293 cells (ATCC CRL-1573)
T2 sequence (Q92731 whole entry): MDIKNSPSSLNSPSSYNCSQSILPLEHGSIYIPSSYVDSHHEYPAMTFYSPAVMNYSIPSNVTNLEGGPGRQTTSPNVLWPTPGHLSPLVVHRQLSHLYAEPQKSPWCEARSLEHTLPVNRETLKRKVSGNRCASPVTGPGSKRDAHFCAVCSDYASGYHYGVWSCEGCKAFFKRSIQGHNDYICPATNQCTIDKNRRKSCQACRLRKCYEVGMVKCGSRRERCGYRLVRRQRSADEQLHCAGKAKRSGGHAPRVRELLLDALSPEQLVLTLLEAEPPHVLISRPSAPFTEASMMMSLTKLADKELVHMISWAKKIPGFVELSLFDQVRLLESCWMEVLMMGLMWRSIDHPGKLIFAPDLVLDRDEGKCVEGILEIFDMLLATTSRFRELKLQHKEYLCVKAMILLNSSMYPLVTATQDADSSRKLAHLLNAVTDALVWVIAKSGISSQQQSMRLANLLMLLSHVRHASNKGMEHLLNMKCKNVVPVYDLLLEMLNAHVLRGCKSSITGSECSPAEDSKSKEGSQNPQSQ
Description: as §3

[1] = tested on: LNCaP (androgen-dependent) prostate cancer cells; test: MTT cell viability assay, LNCaP; settings: Homo sapiens, 72 h, read-out: ED50 values from MTT Assay, LNCaP
Description: (§4) Cancer cell lines: LNCaP, DU-145, and MCF-7 cells were purchased from the American Type Culture Collection. PTX 10, a taxol-resistant ovarian cancer cell line, was obtained from the Brander Cancer Research Laboratory, New York Medical College. Cells were maintained in RPMI 1640 culture media supplemented with 10% heat-inactivated FBS, 5 millimolar glutamine, 50 units/milliliter of penicillin G, and 50 […] of streptomycin. The cells were routinely seeded at 1X 10^5 cells/milliliter in T-75 flasks, allowed to attach overnight, then treated with the herbal extract. At different times, cells were harvested by trypsinization.
(§5) The MTT assay (MTT = 3-(4,5-dimethylthiazol-2-yl)-2,5-diphenyl tetrazolium bromide) was used to count viable cells. The assay reagents were purchased from Boehringer Mannheim (Roche Diagnosis Corp, Indianapolis, Indiana). […] The protocol for the cell , viability assay was provided by the manufacturer and modified in our laboratory as described below.
(§6) Prostate or breast (reference) cancer cells were seeded in 96 well microtiter plates at a concentration of 3x10^3 cells per well (MCF-7; breast cancer cells) or 6x10^3 cells per well (LNCaP or DU145; prostate cancer cells), in a volume of 100 microliters of cell culture medium. After 24 hours, 20 microliter aliquots of the compounds at various concentrations were added to the attached cells. […]

[2] = tested on: DU-145 (androgen-independent) prostate cancer cells; test: MTT cell viability assay, DU-145; settings: Homo sapiens, DU-145, 72 h, read-out: ED50 values from MTT Assay, DU145
Description: as §4, §5, §6

[3] = tested on: MCF-7 breast cancer cells; test: MTT cell viability assay, MCF-7; settings: Homo sapiens, MCF7; concentration giving 50% inhibition of cancer cell growth, 72 hours, linear interpolation; read-out: ED50 values from MTT Assay, MCF7
Description: as §4, §5, §6

[4] = tested on: PTX 10, a taxol resistant ovarian cancer cell line; test: MTT cell viability assay, PTX 10; settings: PTX10, 72 h, read-out: ED50, PTX 10 (taxol resistant Ovarian cancer cell)

SMILES	effect on G1, S, and G2M phases of the LNCaP cell cycle (LNCaP cells)	effect on DU-145 cell cycle (DU-145)	ERα-Luc reporter gene activation (hERα)	capability in activating ERβ-Luc reporter gene than the ERα-Luc reporter gene (hERβ)	ERβ-Luc reporter gene activation (hERβ)	IC50 [1]	IC50 [2]	IC50 [3]	IC50 [4]
COc1c(O)cc(O)c2c(=O)cc(-c3ccccc3)oc12 [Wogonin, 5,7-dihydroxy-8-methoxy-flavone]	G1 phase arrest	prolonged the G2M phase	dose-responsive behavior	at least 10 times	dose-responsive behavior	–	–	–	–
O=C(/C=C/c1ccc(O)cc1)c1ccc(O)cc1O [isoliquiritigenin, 2',4,4'-trihydroxychalcone]	G2M phase arrest	–	dose-responsive behavior	at least 10 times	dose-responsive behavior	3.51 µg/mL (≈ 13.7 µM)	7.6 µg/mL (≈ 29.7 µM)	3.25 µg/mL (≈ 12.7 µM)	3.32 µg/mL (≈ 13 µM)
